From ChEMBL document CHEMBL1128696, “Hydroxylated aromatic inhibitors of HIV-1 integrase” (J Med Chem, 1995)

Target: Human immunodeficiency virus type 1 integrase (Human immunodeficiency virus 1, UniProt Q7ZJM1)
Assay: In vitro inhibitory activity against HIV-1 integrase.

Sequence of Human immunodeficiency virus type 1 integrase (Q7ZJM1 whole entry): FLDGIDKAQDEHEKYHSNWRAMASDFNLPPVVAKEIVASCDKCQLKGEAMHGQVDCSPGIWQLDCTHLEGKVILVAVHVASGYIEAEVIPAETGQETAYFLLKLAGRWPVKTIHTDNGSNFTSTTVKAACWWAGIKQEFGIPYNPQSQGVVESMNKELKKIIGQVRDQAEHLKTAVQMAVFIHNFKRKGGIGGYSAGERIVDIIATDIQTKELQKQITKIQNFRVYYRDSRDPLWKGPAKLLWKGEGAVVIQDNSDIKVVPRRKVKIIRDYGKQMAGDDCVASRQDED

| SMILES | IC50 |
| --- | --- |
| CCOC(=O)/C=C/c1ccc(O)c(O)c1 [ETHYL CAFFEATE] | > 100 µM |
| COc1ccc(/C=C/C(=O)OCCc2ccccc2)cc1O | 60 µM |
| N#C/C(=C\c1ccc(O)c(O)c1)C(N)=O | > 100 µM |
| O=C(/C=C/c1ccc(O)c(O)c1)OCCCc1ccccc1 | 8 µM |
| O=C(OCCc1ccccc1)c1ccc2c(O)c(O)ccc2c1 | 18 µM |
| O=C(NCCc1ccccc1)c1cc2ccc(O)c(O)c2cn1 | 40 µM |
| O=C(Cc1ccccc1)NCCc1ccc(O)c(O)c1 | > 100 µM |
| O=C(/C=C/c1ccc(O)c(O)c1)OCc1ccccc1 [BENZYL CAFFEATE] | 9 µM |
| COC(=O)/C=C/c1ccc(O)c(O)c1 [METHYLCAFFEATE] | > 100 µM |
| O=C(/C=C/c1ccc(F)c(F)c1)OCCc1ccccc1 | > 100 µM |
| O=C(NCc1ccccc1)c1cc2cc(O)c(O)cc2cn1 | > 100 µM |
| O=C(/C=C/c1ccc(O)c(O)c1)OCCc1ccccc1 [CAFFEIC ACID PHENETHYL ESTER] | 7 µM |
| O=C(CCc1ccccc1)NCCc1ccc(O)c(O)c1 | > 100 µM |
| COC(=O)c1ccc2c(O)c(O)ccc2c1 | 8 µM |
| O=C(/C=C/c1cc(O)c(O)c(O)c1)OCCc1ccccc1 | 2 µM |
| COc1cc(/C=C/C(=O)OCCc2ccccc2)ccc1O | > 100 µM |
| O=C(/C=C/c1ccc(O)c(O)c1O)OCCc1ccccc1 | 2 µM |
| O=C(NCc1ccccc1)c1cc2ccc(O)c(O)c2cn1 | 75 µM |
| N=c1oc2c(O)c(O)ccc2cc1C(N)=O | 93 µM |
| O=C(/C=C/c1cc(O)ccc1O)OCCc1ccccc1 | > 100 µM |
| O=C(CCc1ccc(O)c(O)c1)NCCc1ccc(O)c(O)c1 | 3 µM |
| O=C(OCCc1ccccc1)c1ccc2cc(O)c(O)cc2c1 | 68 µM |

Results, then the molecule that gave them:

| IC50 | SMILES |
| --- | --- |
| 11 µM | O=C(CCc1ccc(O)c(O)c1)OCCc1ccccc1 |
| 4 µM | O=C(CCc1ccc(O)c(O)c1)NCCc1cc(O)c(O)c(O)c1 |
| > 100 µM | O=C(CCc1ccc(O)c(O)c1)NCCc1ccccc1 |
| 14 µM | COC(=O)c1cc2ccc(O)c(O)c2cn1 |
| 55 µM | O=C(/C=C/c1cc(O)c(O)cc1O)OCCc1ccccc1 |
| 15 µM | O=C(/C=C/c1ccc(O)c(O)c1)OCCc1cccc2ccccc12 |
| 48 µM | N=c1oc2cc(O)c(O)cc2cc1C(N)=O |
| > 100 µM | COc1ccc(/C=C/C(=O)OCCc2ccccc2)cc1OC |
| > 100 µM | COC(=O)c1cc2cc(O)c(O)cc2cn1 |
| 44 µM | O=C(/C=C/c1ccc(O)c(O)c1)OCCc1ccc2ccccc2c1 |
